Results published in ChEMBL document CHEMBL1201862, “PubChem BioAssay data set” (2004).
Active and inactive are the calls of the source.

Tests used:
HeLa = test: HeLa cell cytotoxicity, dose response, cytotoxicity control for MITF activator project, CellTiter-Glo luminescence, cherry-pick samples (AID 540259); assay type: functional, cell-based; settings: Homo sapiens
[1] = HEp-2 cell cytotoxicity, dose response, cytotoxicity control for RSV inhibitor project, HTS (AID 2410); assay type: functional; settings: human respiratory syncytial virus
A-375 [2] = test: MITF: Counter assay: A375 proliferation Measured in Cell-Based System Using Plate Reader - 2084-03_Inhibitor_Dose_DryPowder_Activity. [Related pubchem assays (depositor defined):AID488944]; assay type: functional; settings: Homo sapiens
A-375 [3] = test: A375 melanoma cell viability reduction, dose response, counter-screen for MITF modulator project, cherry-pick samples, set 2 (AID 540335); assay type: functional, cell-based; settings: Homo sapiens
[4] = SNU-C1 cell viability reduction, dose response, CellTiter-Glo luminescence (AID 1117323); assay type: functional, cell-based
[5] = Concentration-dependent survival of SW480 colon cancer line, luminescence detection with CellTiter-Glo, half-maximal inhibitory concentration (AID 1117338); assay type: functional
[6] = HeLa 4N DNA content increase, dose response, cell-based, IC50 (AID 1117351); assay type: functional
Cytochrome P450 1A2 = molecular target: T1, Cytochrome P450 1A2 (Homo sapiens, UniProt P05177);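 note: PubChem cytochrome P450 panel assay, CYP1A2 panel member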
T1 sequence (P05177 whole entry): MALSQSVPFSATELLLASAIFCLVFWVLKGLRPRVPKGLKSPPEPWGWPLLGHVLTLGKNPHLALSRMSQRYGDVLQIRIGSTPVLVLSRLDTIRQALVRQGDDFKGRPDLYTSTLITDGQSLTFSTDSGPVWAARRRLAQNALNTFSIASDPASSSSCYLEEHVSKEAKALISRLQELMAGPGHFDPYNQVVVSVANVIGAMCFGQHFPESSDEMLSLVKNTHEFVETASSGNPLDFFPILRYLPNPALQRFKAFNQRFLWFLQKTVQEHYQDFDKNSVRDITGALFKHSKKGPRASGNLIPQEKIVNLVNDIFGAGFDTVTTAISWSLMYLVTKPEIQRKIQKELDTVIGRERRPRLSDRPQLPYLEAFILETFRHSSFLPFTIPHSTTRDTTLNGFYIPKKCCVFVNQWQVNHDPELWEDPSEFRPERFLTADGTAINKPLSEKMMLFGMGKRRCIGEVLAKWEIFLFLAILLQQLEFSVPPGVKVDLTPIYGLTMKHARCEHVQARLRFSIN

Cytochrome P450 2D6 [7] = molecular target: T2, Cytochrome P450 2D6 (Homo sapiens, UniProt P10635);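 note: CYP2D6 member of a cytochrome P450 panel assay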
[8] = HCT116 cell viability decrease, GSK3B pretreatment – CellTiter-Glo, IC50, dose response (AID 1117339); assay type: functional; settings: HCT-116
[9] = cytotoxicity toward HCT116 cells – cell-based, CellTiter-Glo luminescence, IC50, dose response (AID 1117332); assay type: functional; settings: HCT-116
[10] = cytotoxicity toward HT-29 cells – cell-based, CellTiter-Glo luminescence, IC50, dose response (AID 1117330); assay type: functional
[11] = CellTiter-Glo luminescent dose response of DLD-1 viability loss (AID 1117352); assay type: functional
[12] = RKO cell viability reduction, dose response, CellTiter-Glo luminescence (AID 1117322); assay type: functional
[13] = HeLa 2N DNA content increase, dose response, cell-based, IC50 (AID 1117349); assay type: functional
[14] = Luminescence Cell-Based Dose Response HTS to Identify Activators of Luciferase Translation or Activity in H4 […] Cells. [Related pubchem assays: 1829 (Project Summary), 1814 (Primary HTS)]; assay type: functional
[15] = Luminescence Cell-Based Dose Confirmation to Identify Activators of 5'UTR Stem-Loop Driven Alpha-Synuclein mRNA Translation in H4 Neuroglioblastoma Cells. [Related pubchem assays: 1829 (Project Summary), 1814 (Primary HTS)]; assay type: functional
[16] = Luminescence Cell-Based Dose Response to Identify Activators of Luciferase Translation or Activity in H4-C Neuroglioblastoma Cells. [Related pubchem assays: 1829 (Project Summary), 1814 (Primary HTS)]; assay type: functional
[17] = Luminescence Cell-Based Dose Response to Identify Activators of 5'UTR Stem-Loop Driven Prion Protein mRNA Translation in H4-C Neuroglioblastoma Cells. [Related pubchem assays: 1829 (Project Summary), 1814 (Primary HTS)]; assay type: functional
H4 = test: Luminescence Cell-Based Dose Response HTS to Identify Activators of 5'UTR Stem-Loop Driven Prion Protein mRNA Translation in H4 Neuroglioblastoma Cells. [Related pubchem assays: 1829 (Project Summary), 1814 (Primary HTS)]; assay type: functional; settings: Homo sapiens
Keap1/Nrf2 = Keap1/Nrf2 (Homo sapiens, UniProt Q14145); test: Keap1-Nrf2 protein-protein interaction inhibitors, dose response, biochemical, fluorescence polarization, cherry-picked samples (AID 588683)
[18] = molecular target: T3, RNA-binding protein pos-1 (Caenorhabditis elegans, UniProt G5EF15); test: inhibitors of POS-1/mex-3 RNA binding, dose response, biochemical, fluorescence polarization (AID 1964);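 note: purified POS-1 fused to maltose binding protein made in E. coli; potency of compounds blocking POS-1 binding to fluorescent RNA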
T3 sequence (G5EF15 whole entry): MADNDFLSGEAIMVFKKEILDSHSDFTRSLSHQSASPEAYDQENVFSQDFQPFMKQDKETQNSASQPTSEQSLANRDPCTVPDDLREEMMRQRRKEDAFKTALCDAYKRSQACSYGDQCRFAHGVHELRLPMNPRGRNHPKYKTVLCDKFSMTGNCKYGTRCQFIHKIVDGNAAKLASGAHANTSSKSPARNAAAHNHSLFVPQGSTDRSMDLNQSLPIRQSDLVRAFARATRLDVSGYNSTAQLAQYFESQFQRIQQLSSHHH

[19] = molecular target: T4, Zinc finger protein mex-5 (Caenorhabditis elegans, UniProt Q9XUB2); test: MEX-5/TCR-2 RNA interaction inhibitors, dose response, biochemical, C. elegans, fluorescence polarization (AID 1960)
T4 sequence (Q9XUB2 whole entry): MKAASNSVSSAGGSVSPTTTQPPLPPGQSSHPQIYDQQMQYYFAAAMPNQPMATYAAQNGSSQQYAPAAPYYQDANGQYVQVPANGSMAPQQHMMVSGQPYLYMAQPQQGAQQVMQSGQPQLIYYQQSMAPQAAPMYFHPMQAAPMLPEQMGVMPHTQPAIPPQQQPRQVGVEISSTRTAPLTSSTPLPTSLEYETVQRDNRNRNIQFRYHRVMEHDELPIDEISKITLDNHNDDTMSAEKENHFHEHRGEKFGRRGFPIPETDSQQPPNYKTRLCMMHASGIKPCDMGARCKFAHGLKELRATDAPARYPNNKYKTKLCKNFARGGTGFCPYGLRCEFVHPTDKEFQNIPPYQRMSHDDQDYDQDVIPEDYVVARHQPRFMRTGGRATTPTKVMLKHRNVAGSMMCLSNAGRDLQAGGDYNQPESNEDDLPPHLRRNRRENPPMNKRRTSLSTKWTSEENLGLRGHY

Cytochrome P450 2C9 = Cytochrome P450 2C9 (Homo sapiens, UniProt P11712)
Cannabinoid receptor 2 [20] = molecular target: T5, Cannabinoid receptor 2 (Homo sapiens, UniProt P34972); test: SAR analysis of agonists of the Cannabinoid Receptor 2 using an Image-Based Assay - Set 3. [Related pubchem assays (depositor defined):AID2013, AID2026]; assay type: functional
[21] = molecular target: G-protein coupled receptor 55 (Homo sapiens, UniProt Q9Y2T6); test: SAR Analysis of Selective Antagonists of GPR55 using an Image-Based Assay - Set 4. [Related pubchem assays (depositor defined):AID2013, AID2026]; assay type: functional;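 note: antagonism of response to 5 µM lysophosphatidylinositol agonist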
[22] = molecular target: T6, G-protein coupled receptor 35 (Homo sapiens, UniProt Q9HC97); test: SAR analysis of Agonists of the GPR35 Receptor using an Image-Based Assay - Set 4. [Related pubchem assays (depositor defined):AID2013, AID2026]; assay type: functional
Cannabinoid receptor 2 [23] = molecular target: T5, Cannabinoid receptor 2; test: SAR analysis of antagonists of the Cannabinoid Receptor 2 using an Image-Based Assay - Set 3. [Related pubchem assays (depositor defined):AID2013, AID2026]; assay type: functional
Cannabinoid receptor 1 [24] = molecular target: T7, Cannabinoid receptor 1 (Homo sapiens, UniProt P21554); test: SAR analysis of agonists of the Cannabinoid Receptor 1 using an Image-Based Assay - Set 4. [Related pubchem assays (depositor defined):AID2013, AID2026]; assay type: functional
[25] = molecular target: T6, G-protein coupled receptor 35; test: SAR analysis of Antagonists of the GPR35 Receptor using an Image-Based Assay - Set 6. [Related pubchem assays (depositor defined):AID2013, AID2026]; assay type: functional
Cannabinoid receptor 1 [26] = molecular target: T7, Cannabinoid receptor 1; test: SAR analysis of antagonists of the Cannabinoid Receptor 1 using an Image-Based Assay - Set 4. [Related pubchem assays (depositor defined):AID2013, AID2026]; assay type: functional
Vero [27] = test: cells; assay type: functional; settings: Chlorocebus sabaeus
[28] = inhibitors of firefly luciferase expression or activity, dose response, H4 neuroglioma cells, luminescence (AID 1990); assay type: functional, cell-based
[29] = Luminescence Cell-Based Dose Response HTS to Identify Inhibitors of 5'UTR Stem-Loop Driven Prion Protein mRNA Translation in H4 Neuroglioblastoma Cells. [Related pubchem assays: 1827 (Project Summary), 1813 (Primary HTS)]; assay type: functional
Vero [30] = test: cells; assay type: functional, cell-based; settings: Chlorocebus sabaeus
[31] = inhibitors of SNCA 5'UTR-driven reporter translation, confirmation, H4 neuroglioma cells, luminescence (AID 1988); assay type: functional, cell-based
Cytochrome P450 3A4 = Cytochrome P450 3A4 (Homo sapiens, UniProt P08684);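 note: CYP3A4 tested as one member of a cytochrome P450 panel screen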
Cytochrome P450 2C19 = Cytochrome P450 2C19 (Homo sapiens, UniProt P33261); test: Cytochrome panel assay with activity outcomes. Panel member name: p450-cyp2c19 Compounds with AC50 equal or less than 10 uM are considered active; assay type: functional; settings: read-out: AC50
Cytochrome P450 2D6 [32] = molecular target: T2, Cytochrome P450 2D6; remark: listed apart in the source

T6 sequence (Q9HC97 whole entry): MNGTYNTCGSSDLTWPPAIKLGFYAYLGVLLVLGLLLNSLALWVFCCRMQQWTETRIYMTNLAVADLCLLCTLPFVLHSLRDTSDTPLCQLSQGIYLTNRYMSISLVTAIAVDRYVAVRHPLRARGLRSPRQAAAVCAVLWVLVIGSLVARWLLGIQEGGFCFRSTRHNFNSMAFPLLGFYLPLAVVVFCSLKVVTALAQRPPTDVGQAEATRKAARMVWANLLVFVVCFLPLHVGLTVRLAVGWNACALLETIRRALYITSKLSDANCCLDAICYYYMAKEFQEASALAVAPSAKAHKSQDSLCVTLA
T2 sequence (P10635 whole entry): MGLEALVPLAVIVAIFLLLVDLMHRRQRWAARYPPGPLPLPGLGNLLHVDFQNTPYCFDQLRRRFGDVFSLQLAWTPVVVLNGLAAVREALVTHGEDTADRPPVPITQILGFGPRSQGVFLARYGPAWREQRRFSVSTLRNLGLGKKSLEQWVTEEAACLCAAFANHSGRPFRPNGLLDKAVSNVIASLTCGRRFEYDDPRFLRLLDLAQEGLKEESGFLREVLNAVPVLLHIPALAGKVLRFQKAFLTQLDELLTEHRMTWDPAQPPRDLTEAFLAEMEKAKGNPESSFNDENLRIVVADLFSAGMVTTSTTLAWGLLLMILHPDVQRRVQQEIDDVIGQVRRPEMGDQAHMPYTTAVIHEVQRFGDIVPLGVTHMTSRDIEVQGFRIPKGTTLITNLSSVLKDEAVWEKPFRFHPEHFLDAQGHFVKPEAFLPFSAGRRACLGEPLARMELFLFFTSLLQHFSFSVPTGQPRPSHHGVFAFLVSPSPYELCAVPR
T5 sequence (P34972 whole entry): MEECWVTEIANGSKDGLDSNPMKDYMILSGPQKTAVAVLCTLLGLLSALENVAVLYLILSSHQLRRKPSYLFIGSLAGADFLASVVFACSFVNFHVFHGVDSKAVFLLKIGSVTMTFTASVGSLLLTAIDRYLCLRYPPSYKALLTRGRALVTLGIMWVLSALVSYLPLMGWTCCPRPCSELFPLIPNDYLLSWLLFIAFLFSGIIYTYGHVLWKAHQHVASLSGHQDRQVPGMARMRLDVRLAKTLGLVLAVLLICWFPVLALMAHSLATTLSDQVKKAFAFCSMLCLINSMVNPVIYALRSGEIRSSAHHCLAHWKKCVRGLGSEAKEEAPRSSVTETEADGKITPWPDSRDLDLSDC
T7 sequence (P21554 whole entry): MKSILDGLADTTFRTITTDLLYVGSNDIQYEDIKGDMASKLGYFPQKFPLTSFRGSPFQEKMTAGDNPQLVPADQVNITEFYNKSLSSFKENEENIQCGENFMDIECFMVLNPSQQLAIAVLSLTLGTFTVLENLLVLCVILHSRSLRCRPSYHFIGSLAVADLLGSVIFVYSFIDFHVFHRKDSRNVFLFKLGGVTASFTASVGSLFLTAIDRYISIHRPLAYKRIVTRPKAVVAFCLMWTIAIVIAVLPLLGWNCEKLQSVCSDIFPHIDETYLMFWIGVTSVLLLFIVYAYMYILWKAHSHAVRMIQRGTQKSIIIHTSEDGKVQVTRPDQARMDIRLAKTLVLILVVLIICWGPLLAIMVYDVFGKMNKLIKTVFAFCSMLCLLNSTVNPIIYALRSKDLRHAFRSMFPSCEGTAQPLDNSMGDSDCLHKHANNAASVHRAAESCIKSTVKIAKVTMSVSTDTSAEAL
G-protein coupled receptor 55, sequence (Q9Y2T6 whole entry): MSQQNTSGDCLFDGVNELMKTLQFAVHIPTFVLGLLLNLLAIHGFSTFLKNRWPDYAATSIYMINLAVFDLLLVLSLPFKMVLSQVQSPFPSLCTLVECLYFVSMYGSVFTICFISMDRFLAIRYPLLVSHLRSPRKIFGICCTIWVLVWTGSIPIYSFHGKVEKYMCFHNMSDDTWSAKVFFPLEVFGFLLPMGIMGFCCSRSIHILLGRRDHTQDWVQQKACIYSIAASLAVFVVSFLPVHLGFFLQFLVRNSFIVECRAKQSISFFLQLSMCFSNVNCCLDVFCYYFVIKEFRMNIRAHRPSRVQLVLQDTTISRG
Cytochrome P450 2C9, sequence (P11712 whole entry): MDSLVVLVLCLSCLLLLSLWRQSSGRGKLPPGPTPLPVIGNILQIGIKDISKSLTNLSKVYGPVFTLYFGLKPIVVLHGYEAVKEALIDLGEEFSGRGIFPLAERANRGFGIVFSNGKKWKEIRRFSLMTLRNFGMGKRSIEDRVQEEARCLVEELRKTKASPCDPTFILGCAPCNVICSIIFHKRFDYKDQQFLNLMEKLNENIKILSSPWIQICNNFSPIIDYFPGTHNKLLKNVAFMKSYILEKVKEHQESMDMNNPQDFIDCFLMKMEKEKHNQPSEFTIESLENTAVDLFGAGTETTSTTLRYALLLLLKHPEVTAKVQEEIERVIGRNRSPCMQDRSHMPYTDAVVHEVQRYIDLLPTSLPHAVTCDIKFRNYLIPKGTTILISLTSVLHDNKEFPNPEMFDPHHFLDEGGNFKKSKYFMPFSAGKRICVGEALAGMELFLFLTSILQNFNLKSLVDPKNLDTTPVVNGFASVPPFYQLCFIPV
Cytochrome P450 3A4, sequence (P08684 whole entry): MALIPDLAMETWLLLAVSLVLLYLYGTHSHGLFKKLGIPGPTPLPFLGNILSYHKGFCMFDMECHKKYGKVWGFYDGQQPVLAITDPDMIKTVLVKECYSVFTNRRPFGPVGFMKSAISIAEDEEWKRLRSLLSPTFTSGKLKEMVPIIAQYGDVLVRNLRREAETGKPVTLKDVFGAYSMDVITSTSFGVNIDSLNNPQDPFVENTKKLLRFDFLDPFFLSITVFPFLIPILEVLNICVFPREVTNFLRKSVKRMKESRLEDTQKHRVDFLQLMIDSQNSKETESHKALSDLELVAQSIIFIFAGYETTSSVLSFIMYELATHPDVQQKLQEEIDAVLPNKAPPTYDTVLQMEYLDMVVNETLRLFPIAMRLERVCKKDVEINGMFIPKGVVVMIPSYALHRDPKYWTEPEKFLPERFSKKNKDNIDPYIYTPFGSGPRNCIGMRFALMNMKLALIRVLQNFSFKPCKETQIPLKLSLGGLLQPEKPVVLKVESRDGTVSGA
Keap1/Nrf2, sequence (Q16236 whole entry, the tested form may be a part): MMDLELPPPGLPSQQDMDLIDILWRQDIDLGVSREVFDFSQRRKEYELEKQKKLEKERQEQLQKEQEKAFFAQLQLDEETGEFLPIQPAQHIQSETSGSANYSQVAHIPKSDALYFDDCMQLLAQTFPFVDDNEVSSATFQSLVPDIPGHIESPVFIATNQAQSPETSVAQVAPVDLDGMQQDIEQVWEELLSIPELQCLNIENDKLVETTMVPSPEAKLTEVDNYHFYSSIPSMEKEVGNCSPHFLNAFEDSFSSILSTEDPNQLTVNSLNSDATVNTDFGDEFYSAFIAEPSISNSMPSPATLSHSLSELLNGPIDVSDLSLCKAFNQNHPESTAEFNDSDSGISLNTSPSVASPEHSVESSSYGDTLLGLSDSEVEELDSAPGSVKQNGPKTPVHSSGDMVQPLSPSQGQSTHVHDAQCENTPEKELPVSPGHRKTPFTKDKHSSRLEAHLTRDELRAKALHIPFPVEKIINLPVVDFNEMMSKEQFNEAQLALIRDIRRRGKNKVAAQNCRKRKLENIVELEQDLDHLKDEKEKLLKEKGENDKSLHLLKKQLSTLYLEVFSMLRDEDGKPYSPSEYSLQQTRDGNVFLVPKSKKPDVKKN
Keap1/Nrf2, sequence (Q14145 whole entry, the tested form may be a part): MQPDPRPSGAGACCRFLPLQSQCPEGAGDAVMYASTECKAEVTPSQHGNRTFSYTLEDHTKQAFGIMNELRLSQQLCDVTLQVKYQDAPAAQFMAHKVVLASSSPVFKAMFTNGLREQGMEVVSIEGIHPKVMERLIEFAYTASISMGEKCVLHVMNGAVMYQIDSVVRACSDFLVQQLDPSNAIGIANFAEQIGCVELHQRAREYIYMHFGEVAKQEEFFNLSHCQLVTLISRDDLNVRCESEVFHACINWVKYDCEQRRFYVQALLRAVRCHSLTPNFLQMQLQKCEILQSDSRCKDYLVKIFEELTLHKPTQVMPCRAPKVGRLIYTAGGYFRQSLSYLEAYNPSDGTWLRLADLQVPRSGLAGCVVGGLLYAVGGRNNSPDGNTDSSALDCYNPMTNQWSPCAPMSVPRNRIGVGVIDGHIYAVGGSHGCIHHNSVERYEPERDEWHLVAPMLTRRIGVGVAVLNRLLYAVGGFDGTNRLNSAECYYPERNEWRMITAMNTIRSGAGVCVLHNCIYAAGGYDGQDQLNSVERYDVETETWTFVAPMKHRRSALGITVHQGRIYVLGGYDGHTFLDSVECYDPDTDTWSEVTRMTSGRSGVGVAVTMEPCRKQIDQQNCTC
Cytochrome P450 2C19, sequence (P33261 whole entry): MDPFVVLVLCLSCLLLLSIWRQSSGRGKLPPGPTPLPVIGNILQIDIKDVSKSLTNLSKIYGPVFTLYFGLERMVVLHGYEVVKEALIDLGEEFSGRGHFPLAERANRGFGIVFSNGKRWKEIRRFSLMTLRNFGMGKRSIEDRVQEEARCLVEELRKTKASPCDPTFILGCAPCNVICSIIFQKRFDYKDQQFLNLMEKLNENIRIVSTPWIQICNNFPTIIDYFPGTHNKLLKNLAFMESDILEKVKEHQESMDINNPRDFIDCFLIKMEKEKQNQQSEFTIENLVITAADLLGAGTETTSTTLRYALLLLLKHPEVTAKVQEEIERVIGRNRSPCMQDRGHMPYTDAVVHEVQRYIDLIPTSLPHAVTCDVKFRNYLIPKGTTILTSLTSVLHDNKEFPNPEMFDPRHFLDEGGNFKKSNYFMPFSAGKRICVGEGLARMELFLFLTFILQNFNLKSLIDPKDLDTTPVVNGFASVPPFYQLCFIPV

C/C(=N\OC(=O)c1cccc(C(F)(F)F)c1)c1sc(-c2ccccc2)nc1C
AC50 (HeLa): 174 µM (active)
CC50 [1]: 30.8 µM (active)

CCOC(=O)c1ccc(NC(=O)CC2SCCNC2=O)cc1 (stereo not drawn)
AC50 (A-375 [2]): > 35 µM (active)
AC50 (A-375 [3]): > 35 µM (active)

COc1cccc2c1C(=O)c1c(O)c3c(c(O)c1C2=O)C[C@@](O)(C(C)=O)C[C@@H]3O[C@H]1C[C@H](N)[C@H](O)[C@H](C)O1 [DAUNORUBICIN]
IC50 [4]: 0.338 µM (active)
IC50 [5]: 1.47 µM (active)
IC50 [6]: 0.0464 µM (active)
AC50 (Cytochrome P450 1A2): 31.6 µM (inconclusive)
AC50 (Cytochrome P450 2D6 [7]): inactive
IC50 [8]: 0.0554 µM (active)
IC50 [9]: 0.0509 µM (active)
IC50 [10]: 0.648 µM (active)
IC50 [11]: 0.188 µM (active)
IC50 [12]: 0.118 µM (active)
IC50 [13]: 0.0102 µM (active)

Cc1ccc(NC(=O)Nc2ccc3oc(C)nc3c2)cc1
EC50 [14]: < 0.1 µM (active)
EC50 [15]: 0.216 µM (active)
AC50 (HeLa): 104 µM (active)
EC50 [16]: 0.346 µM (active)
EC50 [17]: 0.192 µM (active)
EC50 (H4): > 120 µM (not active)

CC(C)c1nnc(N2C(=O)C(O)=C(C(=O)c3cccs3)C2c2ccccc2)s1 (stereo not drawn)
AC50 (Keap1/Nrf2): 13.4 µM (active)
EC50 [18]: 33.9 µM (inconclusive)
EC50 [19]: 4.38 µM (inconclusive)

CC(C)OC(=O)/C(=C\C=C\c1ccccc1)NC(=O)c1ccccc1
AC50 (Cytochrome P450 1A2): 3.55 µM (inconclusive)
AC50 (Cytochrome P450 2D6 [7]): inconclusive
AC50 (Cytochrome P450 2C9): 2.82 µM (inconclusive)

Cc1cccc(OCC(=O)N2CCN(c3nc(C)nc4sc5c(c34)CCCC5)CC2)c1
EC50 (Cannabinoid receptor 2 [20]): > 32 µM (inactive)
IC50 [21]: > 32 µM (inactive)
EC50 [22]: > 32 µM (inactive)
IC50 (Cannabinoid receptor 2 [23]): > 11 µM (inactive)
EC50 (Cannabinoid receptor 1 [24]): > 32 µM (inactive)
IC50 [25]: > 32 µM (inactive)
IC50 (Cannabinoid receptor 1 [26]): 1.66 µM (active)

Cc1cc(C)c(-c2csc(NC(=O)/C=C/c3cccs3)n2)c(C)c1
CC50 (Vero [27]): > 25 µM (active)
EC50 [28]: > 120 µM (not active)
EC50 [29]: 21.5 µM (active)
IC50 (Vero [30]): 23.2 µM (active)
EC50 [31]: 9.05 µM (active)

S=C(Nc1ccc(Cl)cc1)NC1CC2CCCC(C1)N2C1CCCC1 (stereo not drawn)
AC50 (Cytochrome P450 3A4): inconclusive
AC50 (Cytochrome P450 2C19): 22.4 µM (inconclusive)

CCOC(=O)C1C(=O)C=C(/C=C/c2ccccc2)CC1c1ccc(Cl)cc1 (stereo not drawn)
AC50 (Cytochrome P450 2D6 [32]): 7.08 µM (inconclusive)
AC50 (Cytochrome P450 3A4): inconclusive
AC50 (Cytochrome P450 2C9): 1.41 µM (inconclusive)

C#CCn1c(S(=O)(=O)Cc2ccc(C)cc2)nc(-c2ccccc2)c1-c1ccccc1
CC50 (Vero [27]): 22.6 µM (active)
IC50 (Vero [30]): 3.84 µM (active)

COc1ccc(-n2cc3c(-c4ccc(-c5ccccc5)cc4)nnc(C)c3n2)cc1
EC50 (Cannabinoid receptor 2 [20]): > 32 µM (inactive)
IC50 [21]: > 32 µM (inactive)
EC50 [22]: > 32 µM (inactive)
IC50 (Cannabinoid receptor 2 [23]): 2.09 µM (active)
EC50 (Cannabinoid receptor 1 [24]): > 32 µM (inactive)
IC50 [25]: 4.74 µM (active)
IC50 (Cannabinoid receptor 1 [26]): 1.04 µM (active)
